According to ChEMBL document CHEMBL4000195, “Design and synthesis of novel 7-aminosubstituted pyrido[2,3-b]pyrazines exhibiting anti-breast cancer activity” (Eur J Med Chem, 2017):
Calls of active or inactive are those of the source. The rule behind the calls is not given here.

Key:
[1] = AUC (0 to 24 hrs) in NOD/SCID mouse at 10 mg/kg, ip administered twice by LC-MS/MS method; type: ADME, organism-based; design: time < 24 hr, dose 10 mg/kg, route intraperitoneal; conditions: in vivo
[2] = molecular target: Glycogen synthase kinase-3 (Sus scrofa) (UniProt B2LUN4+I6LNT8); experiment: Inhibition of pig GSK3alpha/beta using GS-1 as substrate in presence of [gamma33P]ATP after 30 mins by scintillation counting method
[3] = molecular target: Dual specificity mitogen-activated protein kinase kinase 4 (Homo sapiens) (UniProt P45985); experiment: Inhibition of human wild type partial length MEK4 (S84 to D399 residues) expressed in mammalian expression system at 10 uM by KinomeScan method relative to control
[4] = molecular target: Mitogen-activated protein kinase kinase kinase 4 (Homo sapiens) (UniProt Q9Y6R4); experiment: Inhibition of human wild type partial length MAP3K4 (G1319 to E1608 residues) expressed in bacterial expression system at 10 uM by KinomeScan method relative to control
[5] = molecular target: Dual specificity protein kinase CLK1 (Mus musculus) (UniProt P22518); experiment: Inhibition of mouse CLK1
[6] = molecular target: Tyrosine-protein kinase Tec (Homo sapiens) (UniProt P42680); experiment: Inhibition of human wild type partial length TEC (L341 to D620 residues) expressed in bacterial expression system at 10 uM by KinomeScan method relative to control
[7] = molecular target: Fibroblast growth factor receptor 1 (Homo sapiens) (UniProt P11362); experiment: Inhibition of human wild type partial length FGFR1 (P357 to V669 residues) expressed in bacterial expression system at 10 uM by KinomeScan method relative to control
[8] = molecular target: Platelet-derived growth factor receptor beta (Homo sapiens) (UniProt P09619); experiment: Inhibition of recombinant human GST-tagged PDGFR-beta (557-end residues) transphosphorylation activity expressed in baculovirus infected Sf9 cells using poly[Glu:Tyr] (4:1) as substrate after 60 mins
[9] = molecular target: Epidermal growth factor receptor (Homo sapiens) (UniProt P00533); experiment: Inhibition of human EGFR (R669 to V1011 residues) expressed in bacterial expression system at 10 uM by KinomeScan method relative to control
[10] = molecular target: Tyrosine-protein kinase JAK3 (Homo sapiens) (UniProt P52333); experiment: Inhibition of human wild type partial length JAK3 (I781 to S1124 residues) expressed in mammalian expression system at 10 uM by KinomeScan method relative to control
[11] = test system: MCF7; experiment: Cytotoxicity against human MCF7 cells at 10 uM by MTT assay; type: functional
[12] = test system: Mus musculus; experiment: In vivo inhibition of ERK1/2 phosphorylation at Thr202/Tyr204 residue in NOD/SCID mouse tumor xenografted with HER2-amplified human HCC1954 cells at 10 mg/kg, ip administered once daily for 18 days measured after 1 hr last dose; type: functional, organism-based
[13] = molecular target: Phosphatidylinositol 4,5-bisphosphate 3-kinase catalytic subunit alpha isoform (Homo sapiens, UniProt P42336, H1047R); experiment: Inhibition of PI3Kalpha H1047R mutant (unknown origin) using PIP2 liposomes as substrate in presence of biotin-labeled PIP3 and GST-GRP1-PH by streptavidin-HRP based assays
[14] = molecular target: Receptor-interacting serine/threonine-protein kinase 3 (Homo sapiens) (UniProt Q9Y572); experiment: Inhibition of human RIPK3
[15] = test system: MDA-MB-231; experiment: Cytotoxicity against human MDA-MB-231 cells at 10 uM by MTT assay; type: functional
[16] = molecular target: Tyrosine-protein kinase TXK (Homo sapiens) (UniProt P42681); experiment: Inhibition of human wild type partial length TXK (L238 to W527 residues) expressed in bacterial expression system at 10 uM by KinomeScan method relative to control
[17] = Cmax in NOD/SCID mouse at 40 mg/kg, ip administered as single dose by LC-MS/MS method; type: ADME, organism-based; design: dose 40 mg/kg, route intraperitoneal; conditions: in vivo
[18] = test system: T47D; experiment: Cytotoxicity against human T47D cells by MTT assay; type: functional, cell-based
[19] = test system: Mus musculus; experiment: Toxicity in NOD/SCID mouse assessed as phenotypic changes at 0.5 mg/kg, po administered as single dose; type: organism-based; conditions: in vivo
[20] = molecular target: Ephrin type-A receptor 1 (Homo sapiens) (UniProt P21709); experiment: Inhibition of human wild type partial length EPHA1 (V588 to I913 residues) expressed in bacterial expression system at 10 uM by KinomeScan method relative to control
[21] = molecular target: Tyrosine-protein kinase Lck (Homo sapiens) (UniProt P06239); experiment: Inhibition of human wild type partial length LCK (R207 to P509 residues) expressed in bacterial expression system at 10 uM by KinomeScan method relative to control
[22] = molecular target: Receptor-type tyrosine-protein kinase FLT3 (Homo sapiens) (UniProt P36888); experiment: Inhibition of recombinant human GST-tagged FLT3 (571 to 993 residues) transphosphorylation activity expressed in baculovirus infected Sf9 cells using poly[Glu:Tyr] (4:1) as substrate after 60 mins
[23] = molecular target: Phosphatidylinositol 4,5-bisphosphate 3-kinase catalytic subunit alpha isoform (Homo sapiens, UniProt P42336); experiment: Inhibition of PI3Kalpha catalytic domain (unknown origin) using PIP2 liposomes as substrate in presence of biotin-labeled PIP3 and GST-GRP1-PH by streptavidin-HRP based assays
[24] = test system: Phosphatidylinositol 4,5-bisphosphate 3-kinase catalytic subunit alpha isoform (Homo sapiens), P42336 [H1047Y]; experiment: Inhibition of human wild type partial length PIK3CA H1047Y mutant (R108 to N1068 residues) expressed in mammalian expression system at 10 uM by KinomeScan method relative to control
[25] = molecular target: Macrophage colony-stimulating factor 1 receptor (Homo sapiens) (UniProt P07333); experiment: Inhibition of human wild type partial length CSF1R (I564 to S939 residues) expressed in bacterial expression system at 10 uM by KinomeScan method relative to control
[26] = molecular target: Mast/stem cell growth factor receptor Kit (Homo sapiens) (UniProt P10721); experiment: Inhibition of recombinant human GST-tagged KIT (544-end residues) transphosphorylation activity expressed in baculovirus infected Sf9 cells using poly[Glu:Tyr] (4:1) as substrate after 60 mins
[27] = molecular target: Aurora kinase B/Inner centromere protein (Homo sapiens) (UniProt Q96GD4+Q9NQS7); experiment: Inhibition of human AURKB/INCENP; type: protein-complex assay
[28] = molecular target: Mitogen-activated protein kinase kinase kinase 1 (Homo sapiens) (UniProt Q13233); experiment: Inhibition of human wild type partial length MAP3K1 (L1202 to W1512 residues) expressed in mammalian expression system at 10 uM by KinomeScan method relative to control
[29] = molecular target: Serine/threonine-protein kinase 4 (Homo sapiens) (UniProt Q13043); experiment: Inhibition of human wild type full length MST1 (M1 to F487 residues) expressed in bacterial expression system at 10 uM by KinomeScan method relative to control
[30] = test system: T47D; experiment: Cytotoxicity against human T47D cells at 10 uM by MTT assay; type: functional
[31] = Tmax in NOD/SCID mouse at 40 mg/kg, ip administered as single dose by LC-MS/MS method; type: ADME, organism-based; conditions: in vivo
[32] = Tmax in NOD/SCID mouse at 10 mg/kg, ip administered as single dose by LC-MS/MS method; type: ADME, organism-based; conditions: in vivo

Chain of Tyrosine-protein kinase Lck (Homo sapiens) (P06239 2-509 limits assumed): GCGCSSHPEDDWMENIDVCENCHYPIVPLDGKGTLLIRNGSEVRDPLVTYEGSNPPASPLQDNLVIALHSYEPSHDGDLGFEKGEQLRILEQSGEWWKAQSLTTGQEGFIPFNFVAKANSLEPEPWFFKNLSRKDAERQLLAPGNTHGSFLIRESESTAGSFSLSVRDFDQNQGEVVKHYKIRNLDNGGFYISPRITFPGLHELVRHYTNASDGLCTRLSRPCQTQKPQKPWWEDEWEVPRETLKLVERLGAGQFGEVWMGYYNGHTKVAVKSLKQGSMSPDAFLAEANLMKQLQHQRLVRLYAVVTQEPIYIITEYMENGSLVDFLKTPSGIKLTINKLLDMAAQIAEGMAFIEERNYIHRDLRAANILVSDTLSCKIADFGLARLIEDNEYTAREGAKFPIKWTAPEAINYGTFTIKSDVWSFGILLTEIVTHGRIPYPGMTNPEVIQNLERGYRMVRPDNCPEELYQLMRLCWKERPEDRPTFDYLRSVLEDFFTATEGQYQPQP
Chain of Phosphatidylinositol 4,5-bisphosphate 3-kinase catalytic subunit alpha isoform (Homo sapiens), P42336 [H1047Y] (P42336 whole entry H1047Y, the tested form may be a part, canonical isoform): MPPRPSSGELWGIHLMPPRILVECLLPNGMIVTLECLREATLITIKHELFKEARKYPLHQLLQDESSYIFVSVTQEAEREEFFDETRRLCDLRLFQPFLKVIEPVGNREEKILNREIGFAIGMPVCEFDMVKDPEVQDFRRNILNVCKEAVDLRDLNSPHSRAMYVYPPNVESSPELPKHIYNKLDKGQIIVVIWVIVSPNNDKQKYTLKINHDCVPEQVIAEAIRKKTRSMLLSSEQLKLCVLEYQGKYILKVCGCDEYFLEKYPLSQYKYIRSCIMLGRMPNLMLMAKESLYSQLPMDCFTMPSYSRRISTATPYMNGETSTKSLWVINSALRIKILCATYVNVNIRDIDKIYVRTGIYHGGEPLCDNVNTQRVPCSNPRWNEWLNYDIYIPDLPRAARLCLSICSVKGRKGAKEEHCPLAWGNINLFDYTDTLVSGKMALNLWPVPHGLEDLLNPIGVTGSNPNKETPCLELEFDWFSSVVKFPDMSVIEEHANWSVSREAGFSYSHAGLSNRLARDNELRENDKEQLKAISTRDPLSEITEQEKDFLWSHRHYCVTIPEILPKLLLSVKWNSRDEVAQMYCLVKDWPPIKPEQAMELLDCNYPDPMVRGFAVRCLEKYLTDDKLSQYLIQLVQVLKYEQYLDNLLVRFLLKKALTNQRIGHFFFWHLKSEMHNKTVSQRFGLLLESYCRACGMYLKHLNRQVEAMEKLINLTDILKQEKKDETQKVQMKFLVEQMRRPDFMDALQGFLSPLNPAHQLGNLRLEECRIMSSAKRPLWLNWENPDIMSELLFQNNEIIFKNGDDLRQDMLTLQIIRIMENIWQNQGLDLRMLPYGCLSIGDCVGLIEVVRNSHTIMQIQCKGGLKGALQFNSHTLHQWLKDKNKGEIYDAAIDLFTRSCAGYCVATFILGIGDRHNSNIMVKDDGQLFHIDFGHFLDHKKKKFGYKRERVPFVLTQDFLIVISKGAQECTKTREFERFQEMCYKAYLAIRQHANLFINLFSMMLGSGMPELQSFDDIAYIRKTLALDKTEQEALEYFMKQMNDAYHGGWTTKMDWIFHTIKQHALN
Chain of Tyrosine-protein kinase JAK3 (Homo sapiens) (P52333 whole entry, the tested form may be a part): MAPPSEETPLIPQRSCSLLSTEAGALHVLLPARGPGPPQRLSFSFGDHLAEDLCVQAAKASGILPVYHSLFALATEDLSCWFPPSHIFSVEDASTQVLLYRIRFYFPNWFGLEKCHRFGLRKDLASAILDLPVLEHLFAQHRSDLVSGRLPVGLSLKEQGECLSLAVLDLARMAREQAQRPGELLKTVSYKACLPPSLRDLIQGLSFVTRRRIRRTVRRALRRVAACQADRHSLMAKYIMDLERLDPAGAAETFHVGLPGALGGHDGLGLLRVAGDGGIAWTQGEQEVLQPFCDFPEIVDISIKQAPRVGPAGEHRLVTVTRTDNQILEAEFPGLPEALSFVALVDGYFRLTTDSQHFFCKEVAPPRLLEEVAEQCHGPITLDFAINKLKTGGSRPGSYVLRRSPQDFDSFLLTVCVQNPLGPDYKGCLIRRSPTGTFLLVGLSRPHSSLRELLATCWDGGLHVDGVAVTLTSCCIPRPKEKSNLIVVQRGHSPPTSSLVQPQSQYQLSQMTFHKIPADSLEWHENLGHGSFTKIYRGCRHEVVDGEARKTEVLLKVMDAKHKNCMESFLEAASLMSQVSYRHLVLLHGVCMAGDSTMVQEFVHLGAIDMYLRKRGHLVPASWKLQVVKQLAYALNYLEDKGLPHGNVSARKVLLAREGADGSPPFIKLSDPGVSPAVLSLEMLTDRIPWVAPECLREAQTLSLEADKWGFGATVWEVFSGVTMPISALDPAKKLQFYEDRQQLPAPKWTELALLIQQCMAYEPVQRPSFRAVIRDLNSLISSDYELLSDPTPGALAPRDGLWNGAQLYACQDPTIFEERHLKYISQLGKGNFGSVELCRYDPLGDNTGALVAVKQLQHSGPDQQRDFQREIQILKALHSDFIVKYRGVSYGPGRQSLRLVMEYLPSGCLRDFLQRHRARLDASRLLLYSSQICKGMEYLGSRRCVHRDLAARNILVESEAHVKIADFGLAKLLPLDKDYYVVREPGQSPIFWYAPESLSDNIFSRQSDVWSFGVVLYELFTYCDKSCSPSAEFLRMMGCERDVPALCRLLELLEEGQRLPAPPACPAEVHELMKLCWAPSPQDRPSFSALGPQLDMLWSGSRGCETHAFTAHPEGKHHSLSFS
Chain of Phosphatidylinositol 4,5-bisphosphate 3-kinase catalytic subunit alpha isoform (Homo sapiens, UniProt P42336) (P42336 whole entry, the tested form may be a part, canonical isoform): as the sequence (P42336 whole entry H1047Y, the tested form may be a part, canonical isoform) above, with Y1047H counted along it
Chain of Phosphatidylinositol 4,5-bisphosphate 3-kinase catalytic subunit alpha isoform (Homo sapiens, UniProt P42336, H1047R) (P42336 whole entry H1047R, canonical isoform): as the sequence (P42336 whole entry H1047Y, the tested form may be a part, canonical isoform) above, with Y1047R counted along it

AUC(0-t) at 24 h [1]: 70.8 µM·h | inhibition [2]: inactive | inhibition [3]: 0% | inhibition [4]: 16% | inhibition [5]: inactive | inhibition [6]: 9% | inhibition [7]: 18% | inhibition [8]: inactive | inhibition [9]: 8% | inhibition [10]: 0% | IC50 [13]: 22 µM | inhibition [14]: inactive | inhibition [16]: 8% | Cmax [17]: 18.7 µM | inhibition [20]: 9% | inhibition [21]: 2% | inhibition [22]: inactive | IC50 [23]: 26 µM | inhibition [24]: 8% | inhibition [25]: 0% | inhibition [26]: inactive | inhibition [27]: inactive | inhibition [28]: 0% | inhibition [29]: 0% | Tmax [31]: 2 h | Tmax [32]: 2 h
Structure (SMILES): Cc1nc2nc(Sc3ccccc3)cnc2cc1NC(=O)Nc1ccccc1
Activity [11]: >50% | inhibition [12]: Active | Activity [15]: >50% | IC50 [18]: 5.7 µM | Activity [19]: Non-Toxic | Activity [30]: >50%
